Measured values from patent US10556884B2, “Pesticidally active heterocyclic derivatives with sulphur containing substituents” (SYNGENTA PARTICIPATIONS AG, priority 2015, dated 2020).
Like-named read-outs stand apart in the source and are kept apart here.

Experiments:
[1] = system: Spodoptera littoralis (Egyqptian Cotton Leaf Worm); assay: Spodoptera littoralis L1 larvae on sprayed cotton leaf discs; assay type: in vivo; details: foliar, 72 h, read-out: control (mortality, anti-feeding effect, growth inhibition)
Method: Example B8: Spodoptera littoralis (Egyqptian Cotton Leaf Worm)
Cotton leaf discs were placed onto agar in 24-well microtiter plates and sprayed with aqueous test solutions prepared from 10′000 ppm DMSO stock solutions. After drying the leaf discs were infested with five L1 larvae. The samples were assessed for mortality, anti-feeding effect, and growth inhibition in comparison to untreated samples 3 days after infestation. Control of Spodoptera littoralis by a test sample is given when at least one of the categories mortality, anti-feedant effect, and growth inhibition is higher than the untreated sample.

[2] = system: Myzus persicae (Green Peach Aphid); assay: Myzus persicae feeding/contact activity, sunflower leaf discs; assay type: in vivo; details: foliar, 144 h
Method: Example B5: Myzus persicae (Green Peach Aphid): Feeding/Contact Activity
(§1) Sunflower leaf discs were placed onto agar in a 24-well microtiter plate and sprayed with aqueous test solutions prepared from 10′000 ppm DMSO stock solutions. After drying, the leaf discs were infested with an aphid population of mixed ages. The samples were assessed for mortality 6 days after infestation.

[3] = system: Thrips tabaci (Onion Thrips); assay: Thrips tabaci feeding/contact activity, sunflower leaf discs; assay type: in vivo; details: foliar, 144 h, application rate of 200 ppm, population of mixed ages, 6 days after infestation
Method: Example B11: Thrips tabaci (Onion Thrips) Feeding/Contact Activity
as §1, with “on” for “onto”, “in” for “in a”, “plates” for “plate”, “drying” for “drying,”, “a thrips” for “an aphid”

[4] = system: Myzus persicae (Green Peach Aphid); assay: Myzus persicae systemic activity, pea seedlings; assay type: in vivo; details: 144 h, test rate of 24 ppm, 6 days after placing seedlings into test solutions
[5] = system: Plutella xylostella (Diamond Back Moth); assay: Plutella xylostella L2 larvae on artificial diet; assay type: in vivo; details: 120 h, read-out: effect in at least one of the two categories (mortality or growth inhibition); for percent effect (mortality or growth inhibition) at 200 ppm: application rate of 200 ppm, L2 larvae, 5 days after infestation
Method: Example B7: Plutella xylostella (Diamond Back Moth)
(§2) 24-well microtiter plates with artificial diet were treated with aqueous test solutions prepared from 10′000 ppm DMSO stock solutions by pipetting. After drying, the plates were infested with L2 larvae (10 to 15 per well). The samples were assessed for mortality and growth inhibition in comparison to untreated samples 5 days after infestation.

[6] = system: Diabrotica Balteata (Corn Root Worm); assay: Diabrotica balteata L2 larvae on maize sprouts; assay type: in vivo; details: 96 h, read-out: effect in at least one of the two categories (mortality or growth inhibition); for percent effect (mortality or growth inhibition) at 200 ppm: application rate of 200 ppm, L2 larvae, 4 days after infestation
Method: Example B2: Diabrotica Balteata (Corn Root Worm)
as §2, with “Maize sprouts placed onto an agar layer in 24-well” for “24-well”, “plates” for “plates with artificial diet”, “spraying.” for “pipetting.”, “(6” for “(10”, “10” for “15”, “4” for “5”

[7] = application rate of 200 ppm, L1 larvae, 3 days after infestation
[8] = application rate of 200 ppm, feeding/contact, population of mixed ages, 6 days after infestation, read-out: mortality

Row | Compound | mortality at 200 ppm [2, 8] | mortality at 24 ppm [4] | further results
1 | CCS(=O)(=O)c1cc(N(C(=O)C2CC2)S(C)(=O)=O)cnc1-c1nnc(-c2cc(C(F)(F)F)ccn2)n1C [A20, N-[5-ethylsulfonyl-6-[4-methyl-5-[4-(trifluoromethyl)-2-pyridyl]-1,2,4-triazol-3-yl]-3-pyridyl]-N-methylsulfonyl-cyclopropanecarboxamide] | – | – | melting point: 229 to 231 °C
2 | CCS(=O)(=O)c1cc(NS(C)(=O)=O)cnc1-c1nnc(-c2cc(C(F)(F)F)ccn2)n1C [A14, N-[5-ethylsulfonyl-6-[4-methyl-5-[4-(trifluoromethyl)-2-pyridyl]-1,2,4-triazol-3-yl]-3-pyridyl]methanesulfonamide] | – | – | melting point: 228 to 230 °C
3 | CCS(=O)(=O)c1cc(N(C)C2CC2)cnc1-c1nnc(-c2cc(C(F)(F)F)ccn2)n1C [A10, N-cyclopropyl-5-ethylsulfonyl-N-methyl-6-[4-methyl-5-[4-(trifluoromethyl)-2-pyridyl]-1,2,4-triazol-3-yl]pyridin-3-amine] | ≥ 80% | – | mortality at 200 ppm [1, 7]: ≥ 80%
4 | CCS(=O)(=O)c1ccc(C(=O)NC2CC2)nc1-c1nnc(-c2cc(C(F)(F)F)ccn2)n1C [A19, N-cyclopropyl-5-ethylsulfonyl-6-[4-methyl-5-[4-(trifluoromethyl)-2-pyridyl]-1,2,4-triazol-3-yl]pyridine-2-carboxamide] | ≥ 80% | ≥ 80% | mortality at 200 ppm [3]: ≥ 80%
5 | CCS(=O)(=O)c1cc(N)cnc1-c1nnc(-c2cc(C(F)(F)F)ccn2)n1C [A35, 5-ethylsulfonyl-6-[4-methyl-5-[4-(trifluoromethyl)-2-pyridyl]-1,2,4-triazol-3-yl]pyridin-3-amine] | ≥ 80% | – | –
6 | CCS(=O)(=O)c1ccc(N(C)C(=O)C2CC2)nc1-c1nnc(-c2cc(C(F)(F)F)ccn2)n1C [A8, N-[5-ethylsulfonyl-6-[4-methyl-5-[4-(trifluoromethyl)-2-pyridyl]-1,2,4-triazol-3-yl]-2-pyridyl]-N-methyl-cyclopropanecarboxamide] | ≥ 80% | ≥ 80% | percent effect (mortality or growth inhibition) at 200 ppm [5]: ≥ 80%; mortality at 200 ppm [1, 7]: ≥ 80%; mortality at 200 ppm [3]: ≥ 80%; percent effect (mortality or growth inhibition) at 200 ppm [6]: ≥ 80%
7 | CCS(=O)(=O)c1cc(NC2(C#N)CC2)cnc1-c1nnc(-c2cc(C(F)(F)F)ccn2)n1C [A22, 1-[[5-ethylsulfonyl-6-[4-methyl-5-[4-(trifluoromethyl)-2-pyridyl]-1,2,4-triazol-3-yl]-3-pyridyl]amino]cyclopropanecarbonitrile] | – | ≥ 80% | –
8 | CCS(=O)(=O)c1cc(N(C)/C=N/OC)cnc1-c1nnc(-c2cc(C(F)(F)F)ccn2)n1C [A25, N-[5-ethylsulfonyl-6-[4-methyl-5-[4-(trifluoromethyl)-2-pyridyl]-1,2,4-triazol-3-yl]-3-pyridyl]-N′-methoxy-N-methyl-formamidine] | ≥ 80% | ≥ 80% | –
9 | CCSc1cc(NC(=O)C2CC2)cnc1-c1nnc(-c2cc(C(F)(F)F)ccn2)n1C [A1, N-[5-ethylsulfanyl-6-[4-methyl-5-[4-(trifluoromethyl)-2-pyridyl]-1,2,4-triazol-3-yl]-3-pyridyl]cyclopropanecarboxamide] | ≥ 80% | – | –
10 | CCS(=O)(=O)c1cc(N(C)S(C)(=O)=O)cnc1-c1nnc(-c2cc(C(F)(F)F)ccn2)n1C [A12, N-[5-ethylsulfonyl-6-[4-methyl-5-[4-(trifluoromethyl)-2-pyridyl]-1,2,4-triazol-3-yl]-3-pyridyl]-N-methyl-methanesulfonamide] | ≥ 80% | ≥ 80% | –
11 | CCS(=O)(=O)c1cc(C(=O)N(C)C2CC2)cnc1-c1nnc(-c2cc(C(F)(F)F)ccn2)n1C [A16, N-cyclopropyl-5-ethylsulfonyl-N-methyl-6-[4-methyl-5-[4-(trifluoromethyl)-2-pyridyl]-1,2,4-triazol-3-yl]pyridine-3-carboxamide] | – | – | melting point: 235 to 237 °C
12 | CCS(=O)(=O)c1ccc(N(C)C(=O)OC(C)(C)C)nc1-c1nnc(-c2cc(C(F)(F)F)ccn2)n1C [A38, Tert-Butyl N-[5-ethylsulfonyl-6-[4-methyl-5-[4-(trifluoromethyl)-2-pyridyl]-1,2,4-triazol-3-yl]-2-pyridyl]-N-methyl-carbamate] | – | – | percent control (mortality or growth inhibition) at 200 ppm [5]: ≥ 80%; mortality at 200 ppm [1]: ≥ 80%; percent control (mortality or growth inhibition) at 200 ppm [6]: ≥ 80%; mortality at 200 ppm [2]: ≥ 80%
13 | CCS(=O)(=O)c1cc(N(C)C(=O)OC(C)(C)C)cnc1-c1nnc(-c2cc(C(F)(F)F)ccn2)n1C [A39, Tert-Butyl N-[5-ethylsulfonyl-6-[4-methyl-5-[4-(trifluoromethyl)-2-pyridyl]-1,2,4-triazol-3-yl]-3-pyridyl]-N-methyl-carbamate] | – | – | percent control (mortality or growth inhibition) at 200 ppm [5]: ≥ 80%; mortality at 200 ppm [1]: ≥ 80%; percent control (mortality or growth inhibition) at 200 ppm [6]: ≥ 80%
14 | CCS(=O)(=O)c1cc(N(C)N(C)C(=O)C2CC2)cnc1-c1nnc(-c2cc(C(F)(F)F)ccn2)n1C [A31, N′-[5-ethylsulfonyl-6-[4-methyl-5-[4-(trifluoromethyl)-2-pyridyl]-1,2,4-triazol-3-yl]-3-pyridyl]-N,N′-dimethyl-cyclopropanecarbohydrazide] | ≥ 80% | ≥ 80% | –
15 | CCS(=O)(=O)c1cc(N/C=N/OC)cnc1-c1nnc(-c2cc(C(F)(F)F)ccn2)n1C [A24, N-[5-ethylsulfonyl-6-[4-methyl-5-[4-(trifluoromethyl)-2-pyridyl]-1,2,4-triazol-3-yl]-3-pyridyl]-N′-methoxy-formamidine] | – | ≥ 80% | –
16 | CCS(=O)(=O)c1ccc(NC)nc1-c1nnc(-c2cc(C(F)(F)F)ccn2)n1C [A41, 5-ethylsulfonyl-N-methyl-6-[4-methyl-5-[4-(trifluoromethyl)-2-pyridyl]-1,2,4-triazol-3-yl]pyridin-2-amine] | ≥ 80% | ≥ 80% | –
17 | CCS(=O)(=O)c1ccc(NC2CC2)nc1-c1nnc(-c2cc(C(F)(F)F)ccn2)n1C [A5, N-cyclopropyl-5-ethylsulfonyl-6-[4-methyl-5-[4-(trifluoromethyl)-2-pyridyl]-1,2,4-triazol-3-yl]pyridin-2-amine] | ≥ 80% | ≥ 80% | –
18 | CCS(=O)(=O)c1ccc(N(C)C2CC2)nc1-c1nnc(-c2cc(C(F)(F)F)ccn2)n1C [A11, N-cyclopropyl-5-ethylsulfonyl-N-methyl-6-[4-methyl-5-[4-(trifluoromethyl)-2-pyridyl]-1,2,4-triazol-3-yl]pyridin-2-amine] | ≥ 80% | ≥ 80% | –
19 | CCS(=O)(=O)c1cc(C=O)cnc1-c1nnc(-c2cc(C(F)(F)F)ccn2)n1C [A3, 5-ethylsulfonyl-6-[4-methyl-5-[4-(trifluoromethyl)-2-pyridyl]-1,2,4-triazol-3-yl]pyridine-3-carbaldehyde] | ≥ 80% | ≥ 80% | –
20 | CCS(=O)(=O)c1cc(C(C)=O)cnc1-c1nnc(-c2cc(C(F)(F)F)ccn2)n1C [A4, 1-[5-ethylsulfonyl-6-[4-methyl-5-[4-(trifluoromethyl)-2-pyridyl]-1,2,4-triazol-3-yl]-3-pyridyl]ethanone] | – | ≥ 80% | –
21 | CCS(=O)(=O)c1ccc(N(CC(F)(F)F)C(=O)C2CC2)nc1-c1nnc(-c2cc(C(F)(F)F)ccn2)n1C [A29, N-[5-ethylsulfonyl-6-[4-methyl-5-[4-(trifluoromethyl)-2-pyridyl]-1,2,4-triazol-3-yl]-2-pyridyl]-N-(2,2,2-trifluoroethyl)cyclopropanecarboxamide] | ≥ 80% | – | percent effect (mortality or growth inhibition) at 200 ppm [5]: ≥ 80%; mortality at 200 ppm [1, 7]: ≥ 80%; mortality at 200 ppm [3]: ≥ 80%; percent effect (mortality or growth inhibition) at 200 ppm [6]: ≥ 80%
22 | CCS(=O)(=O)c1cc(C(=O)NC2(C#N)CC2)cnc1-c1nnc(-c2cc(C(F)(F)F)ccn2)n1C [A23, N-(1-cyanocyclopropyl)-5-ethylsulfonyl-6-[4-methyl-5-[4-(trifluoromethyl)-2-pyridyl]-1,2,4-triazol-3-yl]pyridine-3-carboxamide] | – | – | melting point: 211 to 213 °C
